Measured values reported in paper PMC6443996, “1‐Hydroxy‐xanthine derivatives inhibit the human Caf1 nuclease and Caf1‐containing nuclease complexes via Mg^2+‐dependent binding” (FEBS Open Bio, 2019).

Legend:
Test in all cases: chemiluminescence-based AMP detection (AMP-Glo) deadenylase assay
Format in all cases: biochemical
[1] = molecular target: T1, trimeric human nuclease module (BTG2-Caf1/CNOT7-Ccr4/CNOT6L) (Homo sapiens, UniProt Q9UIV1); details: read-out: IC50 (μM) vs trimeric Caf1-complex ^c
T1 construct: trimeric complex co-expressed from pQE80L-BTG2 and pACYC-Duet1-Strep-CNOT6L-CNOT7 in E. coli; with CCR4-NOT transcription complex subunit 6-like; Protein BTG2
T1 sequence (Q9UIV1 whole entry, other chains not shown): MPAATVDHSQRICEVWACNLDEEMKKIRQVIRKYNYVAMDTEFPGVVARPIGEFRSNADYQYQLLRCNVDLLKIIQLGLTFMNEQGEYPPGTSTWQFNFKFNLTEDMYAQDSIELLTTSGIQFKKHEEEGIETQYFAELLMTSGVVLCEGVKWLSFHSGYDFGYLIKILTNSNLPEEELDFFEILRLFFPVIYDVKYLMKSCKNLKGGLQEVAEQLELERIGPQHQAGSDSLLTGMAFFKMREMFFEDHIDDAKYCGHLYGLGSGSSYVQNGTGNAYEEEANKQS
T1 sequence (P78543 whole entry partner, other chains not shown): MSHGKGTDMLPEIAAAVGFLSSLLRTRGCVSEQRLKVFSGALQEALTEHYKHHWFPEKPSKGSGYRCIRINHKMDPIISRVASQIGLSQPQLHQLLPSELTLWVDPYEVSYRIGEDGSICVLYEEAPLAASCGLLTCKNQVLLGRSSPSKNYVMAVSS

[2] = molecular target: T2, human Caf1/CNOT7 (Homo sapiens, UniProt Q9UIV1); details: read-out: IC50 (μM) vs Caf1 ^b
T2 construct: isolated recombinant wild-type Caf1 subunit, expressed and purified from Escherichia coli BL21(DE3)
T2 sequence (Q9UIV1 whole entry): as the sequence (Q9UIV1 whole entry, other chains not shown) above
Text: chemiluminescence-based AMP detection (AMP-Glo) deadenylase assay on human Caf1/CNOT7

[3] = molecular target: T3, human pentameric central module (BTG2-Caf1/CNOT7-Ccr4/CNOT6L-CNOT1-CNOT9) of Ccr4-Not (Homo sapiens, UniProt Q9UIV1); details: read-out: IC50 (μM) vs pentameric Caf1-complex ^d
T3 construct: pentamer reconstituted from separately purified nuclease module and CNOT1 (MIF4G and DUF3819 domains, 1093-1595)-CNOT9 (ARM domain, 33-283) dimer; E. coli; with CCR4-NOT transcription complex subunit 6-like; Protein BTG2; CCR4-NOT transcription complex subunit 1; CCR4-NOT transcription complex subunit 9
T3 sequence (Q9UIV1 whole entry, other chains not shown, the tested form may be a part): as the sequence (Q9UIV1 whole entry, other chains not shown) above
T3 sequence (P78543 whole entry partner, other chains not shown, the tested form may be a part): as the sequence (P78543 whole entry partner, other chains not shown) above
T3 sequence (A5YKK6 1093-1595 partner, other chains not shown): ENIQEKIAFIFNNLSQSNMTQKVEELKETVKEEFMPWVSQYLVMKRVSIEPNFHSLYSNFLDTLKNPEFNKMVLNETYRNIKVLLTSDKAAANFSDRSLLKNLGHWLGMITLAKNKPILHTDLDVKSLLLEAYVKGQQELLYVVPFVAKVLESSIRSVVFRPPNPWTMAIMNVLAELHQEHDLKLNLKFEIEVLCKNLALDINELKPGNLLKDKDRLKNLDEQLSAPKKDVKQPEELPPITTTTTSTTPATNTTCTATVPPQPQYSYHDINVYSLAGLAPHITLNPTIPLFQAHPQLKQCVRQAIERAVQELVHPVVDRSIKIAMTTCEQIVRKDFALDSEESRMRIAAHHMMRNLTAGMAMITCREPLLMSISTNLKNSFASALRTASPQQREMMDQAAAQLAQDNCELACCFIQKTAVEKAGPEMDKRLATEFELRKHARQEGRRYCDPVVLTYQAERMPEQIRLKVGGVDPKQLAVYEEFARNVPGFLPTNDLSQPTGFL
T3 sequence (Q92600 33-283 partner, other chains not shown): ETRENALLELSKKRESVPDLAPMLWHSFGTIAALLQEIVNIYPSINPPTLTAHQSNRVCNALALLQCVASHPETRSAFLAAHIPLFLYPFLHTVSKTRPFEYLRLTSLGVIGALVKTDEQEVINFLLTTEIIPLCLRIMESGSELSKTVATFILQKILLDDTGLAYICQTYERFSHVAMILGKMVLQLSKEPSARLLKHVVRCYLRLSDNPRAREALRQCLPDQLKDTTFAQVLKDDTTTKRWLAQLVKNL

IC50 [1] | IC50 [2] | IC50 [3] | Compound
13.6 ± 0.6 µM | 12.7 ± 0.9 µM | 10.8 ± 0.2 µM | O=c1[nH]c2ncn(Cc3ccccc3)c2c(=O)n1O [compound 1, 1-hydroxy-xanthine compound 1]
1 ± 0.2 µM | 0.79 ± 0.09 µM | 0.98 ± 0.07 µM | CN(C)CCCn1c(=O)n(O)c(=O)c2c1ncn2CCc1ccccc1 [compound 5, 1-hydroxy-xanthine compound 5]
